Values joined by “and” are separate entries in the source; they are usually repeats but may differ in a detail not shown here. Equal entries are not always repeated. Where two headings read alike, the source gives them in different places. Starred links: 1 amine or outer side, 2 acyl side, 3 side chain; linkers in the order of their positions; H or OH if unused. Positions of bridges follow the written chain, without caps; N, C: chain ends. Non-standard residues stand in square brackets, D forms with d. Residues, ends and D or L forms follow the SMILES beside them. Chains are numbered I, II in the order given. Actinocin(9to1) = Cc1c2oc3c(C)ccc(C(=O)[*:1])c3nc-2c(C(=O)[*:2])c(N)c1=O; NMeV = CN[C@H](C(=O)O)C(C)C; Sar = CNCC(=O)O
System: expanded OPCs
Assay: cells
Details: for viability at 0.1 µM / viability at 1 µM / viability at 10 µM: Rattus norvegicus, 72 h
Protocol: Having established a consistent assay for measuring OL differentiation in vitro, the next step was to utilize this assay to assess the ability of a wide array of compounds to promote OL differentiation. Prior to library screening, we first established the maximum non-toxic dose of each compound in the library. […] Therefore, we added each compound in the NIH clinical collection (NCC) library to OPCs at 10, 1, and 0.1 µM concentrations. Three days later, we assessed viability of the treated cells by measuring AlamarBlue fluorescence, a measure of cell viability (see “Methods” section). […] Appropriately, we established three sets of screening concentrations for library compounds: non-toxic compounds were tested at 10 and 2 µM, slightly toxic compounds (only toxic at 10 µM) were tested at 2 and 0.4 µM, and very toxic compounds were tested at 0.4 and 0.08 µM.
OPCs were expanded in vitro by seeding into PDL-coated tissue culture flasks at 1000–2000 cells/cm^2 in differentiation media supplemented with 10 ng/ml PDGF-AA. Proliferating OPCs were fed every 2–3 days and supplemented with 2–3× concentration of PDGF as needed to prevent OPC differentiation. After 6–7 days of proliferation, OPCs were harvested by trypsinization, plated into PDL-coated 96-well Falcon plates and centrifuged at 200×g to facilitate cell attachment, survival, and even distribution of cells. Expanded OPCs were seeded in differentiation media at 10,000 cells/well and incubated for 2 h at 37 °C, 10 % CO2 prior to addition of compounds. The NCC library was diluted and added to cells at 10, 1, and 0.1 µM; each concentration was tested in quadruplicate. As a positive control for the induction of toxicity, 5 ng/ml tunicamycin was added to 8 wells in each plate. Three days later, a 1:10 dilution of alamarBlue® (AB) was added to each well and cells were incubated 4 h at 37 °C, 10 % CO2. AB fluorescence was measured using a PerkinElmer Victor II fluorescence microplate reader (PerkinElmer, Waltham, MA) with 560 nm excitation/590 nm emission filters. For library screening, the highest concentration of each compound was adjusted to a minimally toxic concentration based on this toxicity data. Compounds were additionally tested at a second concentration that was 1/5th of the top concentration. The final concentration of DMSO in each well was 0.1 %.

[1] = alamarBlue viability of expanded OPCs, compound at 0.1 µM, relative to DMSO control
[2] = alamarBlue viability of expanded OPCs, compound at 1 µM, relative to DMSO control
[3] = alamarBlue viability of expanded OPCs, compound at 10 µM, relative to DMSO control
[4] = read-out: 0.1 µM (% DMSO), alamarBlue viability of expanded OPCs, compound at 0.1 µM, sheet All Tox data
[5] = read-out: 1 µM (% DMSO), alamarBlue viability of expanded OPCs, compound at 1 µM, sheet All Tox data
[6] = read-out: 10 µM (% DMSO), alamarBlue viability of expanded OPCs, compound at 10 µM, sheet All Tox data

COc1cccc2c1C(=O)c1c(O)c3c(c(O)c1C2=O)C[C@@](O)(C(=O)CO)C[C@@H]3O[C@H]1C[C@H](N)[C@H](O)[C@H](C)O1 [Adriamycin]
0.1 µM (% DMSO) [1]: 9.9 % DMSO | 0.1 µM (% DMSO) (alamarBlue viability of expanded OPCs, compound at 0.1 µM, sheet All Tox data): 84.2 % DMSO | 1 µM (% DMSO) [2]: 9.6 % DMSO | 1 µM (% DMSO) (alamarBlue viability of expanded OPCs, compound at 1 µM, sheet All Tox data): 11.2 % DMSO | 10 µM (% DMSO) [3]: 7.8 % DMSO | 10 µM (% DMSO) (alamarBlue viability of expanded OPCs, compound at 10 µM, sheet All Tox data): 11.9 % DMSO

COc1cc([C@@H]2c3cc4c(cc3[C@H](O)[C@H]3COC(=O)[C@H]23)OCO4)cc(OC)c1OC [Podophyllotoxin]
0.1 µM (% DMSO) [1]: 14.8 % DMSO | 1 µM (% DMSO) [2]: 10.6 % DMSO | 10 µM (% DMSO) [3]: 9.1 % DMSO

C[C@]12CCC(=O)C=C1CC[C@@H]1[C@@H]2[C@@H](O)C[C@@]2(C)[C@H]1CC[C@]2(O)C(=O)CO [Hydrocortisone]
0.1 µM (% DMSO) [1]: 122.3 % DMSO and 114.4 % DMSO | 1 µM (% DMSO) [2]: 115.5 % DMSO and 108.5 % DMSO | 10 µM (% DMSO) [3]: 113.8 % DMSO and 107.0 % DMSO

Cc1c2oc3c(C)ccc(C(=O)N[C@@H]4C(=O)N[C@H](C(C)C)C(=O)N5CCC[C@H]5C(=O)N(C)CC(=O)N(C)[C@@H](C(C)C)C(=O)O[C@@H]4C)c3nc-2c(C(=O)N[C@@H]2C(=O)N[C@H](C(C)C)C(=O)N3CCC[C@H]3C(=O)N(C)CC(=O)N(C)[C@@H](C(C)C)C(=O)O[C@@H]2C)c(N)c1=O [Dactinomycin] (I: T[dV]P[Sar][NMeV] / II: T[dV]P[Sar][NMeV]; ester I:1-I:C, II:1-II:C; linker I:N-II:N via Actinocin(9to1))
viability at 0.1 µM (read-out: 0.1 µM (% DMSO)): 10.2% | viability at 1 µM (read-out: 1 µM (% DMSO)): 11.1% | viability at 10 µM (read-out: 10 µM (% DMSO)): 12.2%

COc1cc2nc(N3CCN(C(=O)c4ccco4)CC3)nc(N)c2cc1OC [Prazosin]
viability at 0.1 µM [4]: 80.9% | viability at 1 µM [5]: 87.6% | viability at 10 µM [6]: 13.1%

Medroxyprogesterone
0.1 µM (% DMSO) (alamarBlue viability, NCC library compound at 0.1 µM, sheet "All Tox data"): 117.3 % DMSO | 1 µM (% DMSO) (alamarBlue viability, NCC library compound at 1 µM, sheet "All Tox data"): 126.7 % DMSO | 10 µM (% DMSO) (alamarBlue viability, NCC library compound at 10 µM, sheet "All Tox data"): 141.4 % DMSO

O=C1c2c(O)ccc(O)c2C(=O)c2c(NCCNCCO)ccc(NCCNCCO)c21 [Mitoxantrone]
0.1 µM (% DMSO) [1]: 9.7 % DMSO | 1 µM (% DMSO) [2]: 9.0 % DMSO | 10 µM (% DMSO) [3]: 7.8 % DMSO

CCCN[C@H]1CCc2nc(N)sc2C1 [Pramipexole]
viability at 0.1 µM [4]: 88.8% | viability at 1 µM [5]: 92.5% | viability at 10 µM [6]: 96%

COc1cccc2c1C(=O)c1c(O)c3c(c(O)c1C2=O)C[C@@](O)(C(=O)CO)C[C@@H]3O[C@H]1C[C@H](N)[C@H](O)[C@H](C)O1 [Doxorubicin]
viability at 0.1 µM [4]: 86.2% | viability at 1 µM [5]: 11% | viability at 10 µM [6]: 13.4%

C[C@]12CC[C@H]3[C@@H](CCC4=CC(=O)CC[C@@]43C)[C@@H]1CC[C@@H]2O [Testosterone]
viability at 0.1 µM (read-out: 0.1 µM (% DMSO)): 88.4% | viability at 1 µM (read-out: 1 µM (% DMSO)): 87.4% | viability at 10 µM (read-out: 10 µM (% DMSO)): 86.2% | 0.1 µM (% DMSO) (rat): 87.3 % DMSO | 1 µM (% DMSO) (rat): 87.6 % DMSO | 10 µM (% DMSO) (rat): 84.8 % DMSO

CC[C@]1(O)C[C@H]2CN(CCc3c([nH]c4ccccc34)[C@@](C(=O)OC)(c3cc4c(cc3OC)N(C=O)[C@H]3[C@@](O)(C(=O)OC)[C@H](OC(C)=O)[C@]5(CC)C=CCN6CC[C@]43[C@@H]65)C2)C1 [Vincristine]
viability at 0.1 µM (read-out: 0.1 µM (% DMSO), alamarBlue viability, NCC library compound at 0.1 µM, sheet "All Tox data"): 17.4% | viability at 1 µM (read-out: 1 µM (% DMSO), alamarBlue viability, NCC library compound at 1 µM, sheet "All Tox data"): 11.1% | viability at 10 µM (read-out: 10 µM (% DMSO), alamarBlue viability, NCC library compound at 10 µM, sheet "All Tox data"): 9%
